16 compounds from patent US20250059171A1 (Hoffmann-La Roche Inc., priority 2021, published 2025) can be followed below.

Where only a bound is given, the exact number is not on record here.

One test has as its target SARS-CoV-2 3CLpro (Severe acute respiratory syndrome coronavirus 2, UniProt P0DTD1). Nature of the test: biochemical.
Another test deals with SARS-CoV 3CLpro (Severe acute respiratory syndrome coronavirus, UniProt P0C6X7). As to the kind of experiment: biochemical.
The target of a further test is HCoV-229E 3CLpro (Human coronavirus 229E, UniProt P0C6X1). As to the kind of experiment: HCoV-229E 3CLpro inhibition assay (FRET). The class given is biochemical.
HCoV-229E 3CLpro, sequence (P0C6X1 2966-3267): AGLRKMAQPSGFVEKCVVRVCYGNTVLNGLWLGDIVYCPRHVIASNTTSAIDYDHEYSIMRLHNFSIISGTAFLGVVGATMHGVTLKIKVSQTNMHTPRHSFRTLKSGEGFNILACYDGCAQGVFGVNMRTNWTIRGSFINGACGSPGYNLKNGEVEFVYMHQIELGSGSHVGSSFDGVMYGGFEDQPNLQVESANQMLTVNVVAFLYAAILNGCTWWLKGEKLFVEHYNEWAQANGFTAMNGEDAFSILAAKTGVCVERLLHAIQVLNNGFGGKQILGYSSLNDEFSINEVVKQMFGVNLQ
The next test deals with MERS-CoV 3CLpro (Middle East respiratory syndrome-related coronavirus, UniProt K9N7C7). As to the kind of experiment: biochemical.
MERS-CoV 3CLpro, sequence (K9N7C7 3248-3553): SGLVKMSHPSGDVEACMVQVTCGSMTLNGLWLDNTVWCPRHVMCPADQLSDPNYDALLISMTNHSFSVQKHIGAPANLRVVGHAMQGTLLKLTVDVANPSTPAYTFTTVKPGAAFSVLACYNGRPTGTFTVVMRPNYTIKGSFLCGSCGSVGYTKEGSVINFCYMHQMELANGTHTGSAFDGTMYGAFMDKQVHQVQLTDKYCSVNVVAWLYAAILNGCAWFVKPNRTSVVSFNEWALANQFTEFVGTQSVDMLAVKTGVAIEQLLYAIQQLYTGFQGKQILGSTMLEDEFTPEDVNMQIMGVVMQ

As to `CCC(CC)[C@H](NC(=O)C1(F)CC1)C(=O)N1C[C@H]2[C@@H]([C@H]1C(=O)NN(C[C@@H]1CCNC1=O)C(=O)[C@@H](F)Cl)C2(C)C` [Example 133, N-[(1S)-1-[(1R,2S,5S)-2-[[[(2S)-2-chloro-2-fluoro-acetyl]-[[(3S)-2-oxopyrrolidin-3-yl]methyl]amino]carbamoyl]-6,6-dimethyl-3-azabicyclo[3.1.0]hexane-3-carbonyl]-2-ethyl-butyl]-1-fluoro-cyclopropanecarboxamide], the IC50 was 0.02 µM against SARS-CoV-2 3CLpro, 0.032 µM on SARS-CoV 3CLpro, 0.04 µM on HCoV-229E 3CLpro and 0.106 µM against MERS-CoV 3CLpro.
Taken in the same sequence, the figures for `CC(C)(C)C[C@H](NC(=O)C1(F)CC1)C(=O)N1C[C@H]2[C@@H]([C@H]1C(=O)NN(C[C@@H]1CCNC1=O)C(=O)[C@H](F)Cl)C2(C)C` [Example 162, N-[(1S)-1-[(1R,2S,5S)-2-[[[(2R)-2-chloro-2-fluoro-acetyl]-[[(3S)-2-oxopyrrolidin-3-yl]methyl]amino]carbamoyl]-6,6-dimethyl-3-azabicyclo[3.1.0]hexane-3-carbonyl]-3,3-dimethyl-butyl]-1-fluoro-cyclopropanecarboxamide] were 0.012 µM, 0.015 µM, 0.033 µM and 0.094 µM.
Consider `CC1([C@H](NC(=O)C(F)(F)F)C(=O)N2C[C@H]3[C@@H]([C@H]2C(=O)NN(C[C@@H]2CCNC2=O)C(=O)[C@H](F)Cl)C3(C)C)CC1` [Example 68, N-[(1S)-2-[(1R,2S,5S)-2-[[[(2R)-2-chloro-2-fluoro-acetyl]-[[(3S)-2-oxopyrrolidin-3-yl]methyl]amino]carbamoyl]-6,6-dimethyl-3-azabicyclo[3.1.0]hexan-3-yl]-1-(1-methylcyclopropyl)-2-oxo-ethyl]-2,2,2-trifluoro-acetamide], for which the IC50 on SARS-CoV-2 3CLpro is 0.018 µM; at SARS-CoV 3CLpro it was 0.014 µM; at HCoV-229E 3CLpro, 0.023 µM; against MERS-CoV 3CLpro it was 0.081 µM.
Taken in the same sequence, the figures for `CC[C@H](C)[C@H](NC(=O)C1(C)CC1)C(=O)N1C[C@H]2[C@@H]([C@H]1C(=O)NN(C[C@@H]1CCNC1=O)C(=O)[C@H](F)Cl)C2(C)C` [Example 60, N-[(1S,2S)-1-[(1R,2S,5S)-2-[[[(2R)-2-chloro-2-fluoro-acetyl]-[[(3S)-2-oxopyrrolidin-3-yl]methyl]amino]carbamoyl]-6,6-dimethyl-3-azabicyclo[3.1.0]hexane-3-carbonyl]-2-methyl-butyl]-1-methyl-cyclopropanecarboxamide] were 0.01 µM, 0.009 µM, 0.019 µM and 0.047 µM.
Taken in the same sequence, the figures for `CC1(C)[C@@H]2[C@@H](C(=O)NN(C[C@@H]3CCNC3=O)C(=O)[C@H](F)Cl)N(C(=O)Cc3cc(C(F)(F)F)cc(C(F)(F)F)c3)C[C@@H]21` [Example 178, (1R,2S,5S)-3-[2-[3,5-bis(trifluoromethyl)phenyl]acetyl]-N′-[(2R)-2-chloro-2-fluoro-acetyl]-6,6-dimethyl-N′—[[(3S)-2-oxopyrrolidin-3-yl]methyl]-3-azabicyclo[3.1.0]hexane-2-carbohydrazide] were 0.148 µM, 0.259 µM, 0.065 µM and 0.264 µM.
As to `CC1(C)[C@@H]2[C@@H](C(=O)NN(C[C@@H]3CCNC3=O)C(=O)[C@H](F)Cl)N(C(=O)[C@@H](NC(=O)C(F)(F)F)C3CC3)C[C@@H]21` [Example 2, N-[(1S)-2-[(1R,2S,5S)-2-[[[(2R)-2-chloro-2-fluoro-acetyl]-[[(3S)-2-oxopyrrolidin-3-yl]methyl]amino]carbamoyl]-6,6-dimethyl-3-azabicyclo[3.1.0]hexan-3-yl]-1-cyclopropyl-2-oxo-ethyl]-2,2,2-trifluoro-acetamide], the IC50 worked out at 0.019 µM on SARS-CoV-2 3CLpro, 0.03 µM on SARS-CoV 3CLpro, 0.041 µM against HCoV-229E 3CLpro and 0.177 µM against MERS-CoV 3CLpro.
At HCoV-229E 3CLpro, `CC1(C)[C@@H]2[C@@H](C(=O)NN(C[C@@H]3CCNC3=O)C(=O)[C@H](F)Cl)N(C(=O)[C@H](CC34CC(C3)C4)NC(=O)C(F)(F)F)C[C@@H]21` [Example 65, N-[(1S)-1-(1-bicyclo[1.1.1]pentanylmethyl)-2-[(1R,2S,5S)-2-[[[(2R)-2-chloro-2-fluoro-acetyl]-[[(3S)-2-oxopyrrolidin-3-yl]methyl]amino]carbamoyl]-6,6-dimethyl-3-azabicyclo[3.1.0]hexan-3-yl]-2-oxo-ethyl]-2,2,2-trifluoro-acetamide] gave an IC50 of 0.025 µM.
For `CCC(CC)[C@H](NC(=O)C(F)(F)F)C(=O)N1C[C@H]2[C@@H]([C@H]1C(=O)NN(C[C@@H]1CCNC1=O)C(=O)[C@H](F)Cl)C2(C)C` [Example 84, N-[(1S)-1-[(1R,2S,5S)-2-[[[(2R)-2-chloro-2-fluoro-acetyl]-[[(3S)-2-oxopyrrolidin-3-yl]methyl]amino]carbamoyl]-6,6-dimethyl-3-azabicyclo[3.1.0]hexane-3-carbonyl]-2-ethyl-butyl]-2,2,2-trifluoro-acetamide], the IC50 against SARS-CoV 3CLpro was found to be 0.014 µM; on HCoV-229E 3CLpro, 0.03 µM; at MERS-CoV 3CLpro, 0.087 µM.
`CC[C@H](C)[C@H](NC(=O)C(F)(F)C(F)(F)F)C(=O)N1C[C@@H]2CCC[C@@H]2[C@H]1C(=O)NN(C[C@@H]1CCNC1=O)C(=O)[C@H](F)Cl` [Example 50, N-[(1S,2S)-1-[(3S,3aS,6aR)-3-[[[(2R)-2-chloro-2-fluoro-acetyl]-[[(3S)-2-oxopyrrolidin-3-yl]methyl]amino]carbamoyl]-3,3a,4,5,6,6a-hexahydro-1H-cyclopenta[c]pyrrole-2-carbonyl]-2-methyl-butyl]-2,2,3,3,3-pentafluoro-propanamide]: the IC50 against SARS-CoV 3CLpro was 0.008 µM; at HCoV-229E 3CLpro, 0.017 µM; against MERS-CoV 3CLpro, 0.042 µM.
Regarding `O=C1NCC[C@H]1CN(NC(=O)[C@@H]1[C@H]2CCC[C@H]2CN1C(=O)COc1cc(F)cc(F)c1)C(=O)[C@H](F)Cl` [Example 89a, (3S,3aS,6aR)—N′-[(2R)-2-chloro-2-fluoro-acetyl]-2-[2-(3,5-difluorophenoxy)acetyl]-N′—[[(3S)-2-oxopyrrolidin-3-yl]methyl]-3,3a,4,5,6,6a-hexahydro-1H-cyclopenta[c]pyrrole-3-carbohydrazide], the IC50 against SARS-CoV-2 3CLpro was 0.051 µM; at MERS-CoV 3CLpro, over 10 µM.
As for `CC(C)(C)[C@H](NC(=O)C(F)(F)F)C(=O)N1CC2(CC2)C[C@H]1C(=O)NN(C[C@@H]1CCNC1=O)C(=O)[C@H](F)Cl` [Example 6, N-[(1S)-1-[(6S)-6-[[[(2R)-2-chloro-2-fluoro-acetyl]-[[(3S)-2-oxopyrrolidin-3-yl]methyl]amino]carbamoyl]-5-azaspiro[2.4]heptane-5-carbonyl]-2,2-dimethyl-propyl]-2,2,2-trifluoro-acetamide], the IC50 came out at 0.014 µM against SARS-CoV 3CLpro, 0.042 µM against HCoV-229E 3CLpro and 0.109 µM against MERS-CoV 3CLpro.
For the compound `CC1(C)[C@@H]2[C@@H](C(=O)NN(C[C@@H]3CCNC3=O)C(=O)[C@H](F)Cl)N(C(=O)COc3cc(F)cc(F)c3)C[C@@H]21` [Example 17, (1R,2S,5S)—N′-[(2R)-2-chloro-2-fluoro-acetyl]-3-[2-(3,5-difluorophenoxy)acetyl]-6,6-dimethyl-N′—[[(3S)-2-oxopyrrolidin-3-yl]methyl]-3-azabicyclo[3.1.0]hexane-2-carbohydrazide], the IC50 on SARS-CoV-2 3CLpro was determined as 0.121 µM; on SARS-CoV 3CLpro, 0.429 µM; at MERS-CoV 3CLpro, 0.408 µM.
With `O=C1NCC[C@H]1CN(NC(=O)[C@H]1[C@@H]2CCC[C@@H]2CN1C(=O)COc1cc(F)cc(F)c1)C(=O)[C@H](F)Cl` [Example 89b, (3R,3aR,6aS)—N′-[(2R)-2-chloro-2-fluoro-acetyl]-2-[2-(3,5-difluorophenoxy)acetyl]-N′—[[(3S)-2-oxopyrrolidin-3-yl]methyl]-3,3a,4,5,6,6a-hexahydro-1H-cyclopenta[c]pyrrole-3-carbohydrazide], the IC50 against SARS-CoV-2 3CLpro is over 10 µM; on MERS-CoV 3CLpro it was 0.193 µM.
For the compound `O=C1NCC[C@H]1CN(NC(=O)[C@@H]1[C@H]2CCC[C@H]2CN1C(=O)COc1cccc(F)c1)C(=O)[C@H](F)Cl` [Example 88a, (3S,3aS,6aR)—N′-[(2R)-2-chloro-2-fluoro-acetyl]-2-[2-(3-fluorophenoxy)acetyl]-N′—[[(3S)-2-oxopyrrolidin-3-yl]methyl]-3,3a,4,5,6,6a-hexahydro-1H-cyclopenta[c]pyrrole-3-carbohydrazide], the values for the IC50 on SARS-CoV-2 3CLpro and on MERS-CoV 3CLpro were 0.042 µM and 0.249 µM, respectively.
In the same order, the values of `O=C1NCC[C@H]1CN(NC(=O)[C@H]1[C@@H]2CCC[C@@H]2CN1C(=O)COc1cccc(F)c1)C(=O)[C@H](F)Cl` [Example 88b, (3R,3aR,6aS)—N′-[(2R)-2-chloro-2-fluoro-acetyl]-2-[2-(3-fluorophenoxy)acetyl]-N′—[[(3S)-2-oxopyrrolidin-3-yl]methyl]-3,3a,4,5,6,6a-hexahydro-1H-cyclopenta[c]pyrrole-3-carbohydrazide] are over 10 µM and 0.155 µM.
Take `CC(C)(C)[C@H](NC(=O)C(F)(F)F)C(=O)N1C[C@H]2[C@@H]([C@H]1C(=O)NN(C[C@@H]1CCNC1=O)C(=O)CCl)C2(C)C` [Example 18, N-[(1S)-1-[(1R,2S,5S)-2-[[(2-chloroacetyl)-[[(3S)-2-oxopyrrolidin-3-yl]methyl]amino]carbamoyl]-6,6-dimethyl-3-azabicyclo[3.1.0]hexane-3-carbonyl]-2,2-dimethyl-propyl]-2,2,2-trifluoro-acetamide]: the values for the IC50 against SARS-CoV 3CLpro and against MERS-CoV 3CLpro were 0.429 µM and 0.408 µM, respectively.
